Experimental data published in ChEMBL document CHEMBL1121526, “Use of acetylacetone to prepare a prodrug of cycloserine” (1980).

Columns and labels:
Mus musculus [1] = organism: Mus musculus; assay: The compound was tested for urinary recovery was assayed for its content of free cycloserine by employing the bioassay in mouse; type: functional, Urine
Escherichia coli = assay: antibacterial activity was reported as zones of inhibition in the disk diffusion assay using Escherichia coli; type: functional
Mus musculus [2] = organism: Mus musculus; assay: The compound was tested for urinary recovery was assayed for its content for total cycloserine content employing the chemical assay in mouse; type: functional, Urine
Staphylococcus aureus = assay: antibacterial activity was reported as zones of inhibition in the disk diffusion assay using staphylococcus aureus; type: functional

| Structure (SMILES) | Urinary recovery of free cycloserine (Mus musculus [1]) [%] | Diameter (Escherichia coli) [mm] | Urinary recovery of total cycloserine (Mus musculus [2]) [%] | Diameter (Staphylococcus aureus) [mm] |
| --- | --- | --- | --- | --- |
| C/C(O)=C\C(C)=N\C1CONC1=O (stereo not given) | 93 | 39 | 64 | 36 |
| N[C@@H]1CONC1=O [CYCLOSERINE] | 64 | 39 | 45 | 36 |
| CC1(C)CC(O)=C/C(=N/C2CONC2=O)C1 (stereo not given) | <1 | < 6 | 55 | < 6 |
| CCOC(=O)NC1CONC1=O (stereo not given) | <1 | < 6 | 33 | < 6 |
| O=C(NC1CONC1=O)C1CCCCC1 (stereo not given) | 1 | < 6 | 53 | < 6 |
| CNC(=O)NC1CONC1=O (stereo not given) | <1 | 22 | 16 | 25 |
| CNC(=O)NC1CON(C(=O)NC)C1=O (stereo not given) | <1 | < 6 | <1 | < 6 |
| O=C(NC(=O)C(Cl)(Cl)Cl)NC1CONC1=O (stereo not given) | <1 | 14 | 55 | < 6 |
| O=C(CCl)NC1CONC1=O (stereo not given) | 1 | < 6 | 70 | < 6 |
| O=C(CCl)NC1CON(C(=O)CCl)C1=O (stereo not given) | 1.1 | < 6 | 43 | < 6 |
